In assay [1] the test system is Rattus norvegicus. Kind of assay: Antihyperglycemic activity in po dosed STZ-diabetic rat assessed as insulin containing beta-cells by immunohistochemical study. It is filed as functional, organism-based.
Assay [2] relates to Rattus norvegicus. The assay can be described thus: Antihyperglycemic activity in STZ-diabetic rat assessed as potentiation of insulin secretion from existing beta cells at 50 mg/kg, po after 45 days. It is filed as functional, organism-based. On the set-up: dose 50 mg/kg.
Assay [3] relates to Rattus norvegicus. Kind of assay: Antihyperglycemic activity in STZ-diabetic rat assessed as dilated islet cells at 25 mg/kg, po after 45 days by histopathological study. In kind it is functional, organism-based. On the set-up: dose 25 mg/kg.
In assay [4] the test system is Rattus norvegicus. The assay can be described thus: Antihyperglycemic activity in po dosed STZ-diabetic rat assessed as lowering of fasting plasma glucose level after 45 days by colorimetry. In kind it is functional.
Assay [5] relates to Rattus norvegicus. Kind of assay: Antihyperglycemic activity in STZ-diabetic rat assessed as hyperplastic islet cells at 50 mg/kg, po after 45 days by histopathological study. In kind it is functional, organism-based. On the set-up: dose 50 mg/kg.
Assay [6] relates to Rattus norvegicus. Kind of assay: Antihyperglycemic activity in STZ-diabetic rat assessed as improvement in beta cell granulation at 50 mg/kg, po after 45 days by histopathological study. It is filed as functional, organism-based. On the set-up: dose 50 mg/kg.
Assay [7] relates to Rattus norvegicus. Kind of assay: Antihyperglycemic activity in STZ-diabetic rat assessed as expansion of islet cells at 25 mg/kg, po after 45 days by histopathological study. In kind it is functional, organism-based. On the set-up: dose 25 mg/kg.
Assay [8] relates to Rattus norvegicus. The assay can be described thus: Antihyperglycemic activity in STZ-diabetic rat assessed as hyperplastic islet cells at 600 mg/kg, po after 45 days by histopathological study. In kind it is functional, organism-based. On the set-up: dose 600 mg/kg.
For assay [9], the system named is Rattus norvegicus. The assay can be described thus: Antihyperglycemic activity in STZ-diabetic rat assessed as dilated islet cells at 12.5 mg/kg, po after 45 days by histopathological study. It is filed as functional, organism-based. On the set-up: dose 12.5 mg/kg.
In assay [10] the test system is Rattus norvegicus. Kind of assay: Antihyperglycemic activity in STZ-diabetic rat assessed as expansion of islet cells at 50 mg/kg, po after 45 days by histopathological study. It is filed as functional, organism-based. On the set-up: dose 50 mg/kg.
The subject of assay [11] is Rattus norvegicus. Kind of assay: Antihyperglycemic activity in STZ-diabetic rat assessed as expansion of islet cells at 12.5 mg/kg, po after 45 days by histopathological study. In kind it is functional, organism-based. On the set-up: dose 12.5 mg/kg.
Assay [12] relates to Rattus norvegicus. The assay can be described thus: Antihyperglycemic activity in STZ-diabetic rat assessed as dilated islet cells at 600 ug/kg, po after 45 days by histopathological study. It is filed as functional, organism-based.

Molecules are shown by their SMILES. Active and inactive are the calls of the source. The calls are words filed in the database; no cut-off is given here.

The values that follow come from ChEMBL document CHEMBL1153951, “Partial regeneration of beta-cells in the islets of Langerhans by Nymphayol a sterol isolated from Nymphaea stellata (Willd.) flowers” (2009).

For `CCCC[C@@H](C)[C@H]1CC[C@H]2[C@@H]3CC=C4C[C@@H](O)CC[C@]4(C)[C@H]3CC[C@]12C` [NYMPHAYOL], the result in the assay with Rattus norvegicus [1], in the assay with Rattus norvegicus [2], in the assay with Rattus norvegicus [6], in the assay on Rattus norvegicus [9] and with Rattus norvegicus [11] was Active. The result in the assay with Rattus norvegicus [3], in the assay with Rattus norvegicus [5], in the assay on Rattus norvegicus [7], in the assay with Rattus norvegicus [8], in the assay with Rattus norvegicus [10] and in the assay with Rattus norvegicus [12] was inactive. For the same molecule, the Activity with Rattus norvegicus [4] was 78.05%.
